Test results: paper PMC12397098, “3-Monothiopomalidomide, a new immunomodulatory imide drug (IMiD), blunts inflammation and mitigates ischemic stroke in the rat” (GeroScience, 2025)

Legend:
[1] = target: T1, Serotonin 5-HT2C receptor (Homo sapiens, UniProt P28335); experiment: PDSP radioligand binding; conditions: read-out: 3-MP concentration required to induce 50% inhibition of PDSP radioligand binding
T1 construct: NIMH Psychoactive Drug Screening Program (PDSP)
Method: (§1) To evaluate potential binding at classical neurological drug targets, 3-MP and 3,6’-DP were submitted to the National Institute on Mental Health (NIMH) Psychoactive Drug Screening Program (PDSP: Univ. N Carolina, Chapel Hill, NC, USA < https://pdspdb.unc.edu/pdspweb/ >) as powdered samples in the provided vials. The materials were then prepared at the PDSP in 10% DMSO, subjected to multiple assay screens, and processed as per the PDSP Assay Protocol Book (Version 3, March 2018). Compounds that exceeded an initial 10 uM binding threshold were then delegated for secondary dose–response analysis. This screen comprised a 45-target comprehensive panel of common brain receptor and transporter drug targets.

[2] = target: T2, Adrenergic Alpha1B receptor (Homo sapiens, UniProt P35368); experiment: PDSP radioligand binding; conditions: read-out: 3-MP concentration required to induce 50% inhibition of PDSP radioligand binding
T2 construct: NIMH Psychoactive Drug Screening Program (PDSP)
Method: as §1

μ-opioid receptor = μ-opioid receptor (Homo sapiens, UniProt P35372); experiment: PDSP radioligand binding; conditions: read-out: 3-MP concentration required to induce 50% inhibition of PDSP radioligand binding
Method: as §1

δ-opioid receptor = δ-opioid receptor (Homo sapiens, UniProt P41143); experiment: PDSP radioligand binding; conditions: read-out: 3-MP concentration required to induce 50% inhibition of PDSP radioligand binding
Method: as §1

[3] = target: T3, Serotonin 5-HT2A receptor (Homo sapiens, UniProt P28223); experiment: PDSP radioligand binding; conditions: read-out: 3-MP concentration required to induce 50% inhibition of PDSP radioligand binding
T3 construct: NIMH Psychoactive Drug Screening Program (PDSP)
Method: as §1

[4] = target: T4, Serotonin 5-HT1E receptor (Homo sapiens, UniProt P28566); experiment: PDSP radioligand binding; conditions: read-out: 3-MP concentration required to induce 50% inhibition of PDSP radioligand binding
T4 construct: NIMH Psychoactive Drug Screening Program (PDSP)
T4 sequence (P28566 whole entry): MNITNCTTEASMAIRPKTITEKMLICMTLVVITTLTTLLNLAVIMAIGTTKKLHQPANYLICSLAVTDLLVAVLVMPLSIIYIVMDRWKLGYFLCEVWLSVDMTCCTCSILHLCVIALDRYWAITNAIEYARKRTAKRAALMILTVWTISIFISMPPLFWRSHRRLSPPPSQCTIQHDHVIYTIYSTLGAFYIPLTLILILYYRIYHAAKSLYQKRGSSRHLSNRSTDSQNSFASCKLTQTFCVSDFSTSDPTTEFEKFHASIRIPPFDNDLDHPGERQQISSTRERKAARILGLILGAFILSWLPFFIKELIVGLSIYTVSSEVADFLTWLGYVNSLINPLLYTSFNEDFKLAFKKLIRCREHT
Method: as §1

Histamine H1 receptor = Histamine H1 receptor (Homo sapiens, UniProt P35367); experiment: PDSP radioligand binding; conditions: read-out: 3-MP concentration required to induce 50% inhibition of PDSP radioligand binding
Method: as §1

Muscarinic M3 receptor = Muscarinic M3 receptor (Homo sapiens, UniProt P20309); experiment: PDSP radioligand binding; conditions: read-out: 3-MP concentration required to induce 50% inhibition of PDSP radioligand binding
Chain of Muscarinic M3 receptor (P20309 whole entry): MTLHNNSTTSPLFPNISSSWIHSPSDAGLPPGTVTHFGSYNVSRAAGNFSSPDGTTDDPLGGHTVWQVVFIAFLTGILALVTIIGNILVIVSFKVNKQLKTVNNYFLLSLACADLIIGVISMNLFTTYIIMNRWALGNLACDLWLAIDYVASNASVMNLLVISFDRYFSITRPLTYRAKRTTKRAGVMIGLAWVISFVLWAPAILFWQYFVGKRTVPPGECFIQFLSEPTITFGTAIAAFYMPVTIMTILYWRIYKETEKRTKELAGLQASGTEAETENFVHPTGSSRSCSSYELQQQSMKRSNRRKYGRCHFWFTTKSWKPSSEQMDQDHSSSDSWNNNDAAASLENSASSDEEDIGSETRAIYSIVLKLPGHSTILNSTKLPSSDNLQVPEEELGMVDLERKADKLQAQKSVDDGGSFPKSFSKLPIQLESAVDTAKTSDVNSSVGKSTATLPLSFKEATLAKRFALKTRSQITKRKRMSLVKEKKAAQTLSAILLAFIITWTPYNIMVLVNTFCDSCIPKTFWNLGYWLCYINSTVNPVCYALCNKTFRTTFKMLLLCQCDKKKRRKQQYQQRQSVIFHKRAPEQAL
Method: as §1

SERT transporter = SERT transporter (Homo sapiens, UniProt P31645); experiment: PDSP radioligand binding; conditions: read-out: 3-MP concentration required to induce 50% inhibition of PDSP radioligand binding
Method: as §1

GABAA receptor = experiment: PDSP radioligand binding; conditions: read-out: 3-MP concentration required to induce 50% inhibition of PDSP radioligand binding
Method: as §1

Dopamine D1 receptor = target: T5, Dopamine D1 receptor (Homo sapiens, UniProt P21728); experiment: PDSP radioligand binding; conditions: read-out: 3-MP concentration required to induce 50% inhibition of PDSP radioligand binding
T5 construct: NIMH Psychoactive Drug Screening Program (PDSP)
T5 sequence (P21728 whole entry): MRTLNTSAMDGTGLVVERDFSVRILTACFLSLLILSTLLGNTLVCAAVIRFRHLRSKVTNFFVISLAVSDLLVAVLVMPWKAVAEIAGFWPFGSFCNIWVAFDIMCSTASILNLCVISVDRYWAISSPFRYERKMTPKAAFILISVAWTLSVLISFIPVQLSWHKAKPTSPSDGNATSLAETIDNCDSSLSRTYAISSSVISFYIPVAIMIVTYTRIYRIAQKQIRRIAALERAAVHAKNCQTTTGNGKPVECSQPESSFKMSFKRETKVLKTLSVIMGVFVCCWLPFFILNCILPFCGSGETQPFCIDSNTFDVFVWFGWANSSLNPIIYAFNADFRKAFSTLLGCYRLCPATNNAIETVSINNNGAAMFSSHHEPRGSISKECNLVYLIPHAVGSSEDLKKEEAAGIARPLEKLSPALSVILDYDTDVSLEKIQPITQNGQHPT
Method: as §1

Muscarinic M5 receptor = Muscarinic M5 receptor (Homo sapiens, UniProt P08912); experiment: PDSP radioligand binding; conditions: read-out: 3-MP concentration required to induce 50% inhibition of PDSP radioligand binding
Method: as §1

DAT transporter = DAT transporter (Homo sapiens, UniProt Q01959); experiment: PDSP radioligand binding; conditions: read-out: 3-MP concentration required to induce 50% inhibition of PDSP radioligand binding
Method: as §1

Muscarinic M4 receptor = Muscarinic M4 receptor (Homo sapiens, UniProt P08173); experiment: PDSP radioligand binding; conditions: read-out: 3-MP concentration required to induce 50% inhibition of PDSP radioligand binding
Method: as §1

[5] = target: T6, Adrenergic Alpha2C receptor (Homo sapiens, UniProt P18825); experiment: PDSP radioligand binding; conditions: read-out: 3-MP concentration required to induce 50% inhibition of PDSP radioligand binding
T6 construct: NIMH Psychoactive Drug Screening Program (PDSP)
Method: as §1

Histamine H4 receptor = Histamine H4 receptor (Homo sapiens, UniProt Q9H3N8); experiment: PDSP radioligand binding; conditions: read-out: 3-MP concentration required to induce 50% inhibition of PDSP radioligand binding
Chain of Histamine H4 receptor (Q9H3N8 whole entry): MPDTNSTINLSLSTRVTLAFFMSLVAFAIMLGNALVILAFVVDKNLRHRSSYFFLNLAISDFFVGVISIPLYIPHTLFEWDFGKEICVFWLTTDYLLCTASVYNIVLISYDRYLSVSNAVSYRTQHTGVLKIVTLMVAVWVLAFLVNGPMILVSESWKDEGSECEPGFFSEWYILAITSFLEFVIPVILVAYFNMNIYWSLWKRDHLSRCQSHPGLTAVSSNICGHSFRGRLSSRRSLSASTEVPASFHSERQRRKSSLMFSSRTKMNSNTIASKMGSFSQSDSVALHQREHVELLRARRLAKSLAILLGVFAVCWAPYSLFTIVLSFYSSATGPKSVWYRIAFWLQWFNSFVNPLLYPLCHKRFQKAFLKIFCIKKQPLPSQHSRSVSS
Method: as §1

[6] = target: T7, Adrenergic Alpha1D receptor (Homo sapiens, UniProt P25100); experiment: PDSP radioligand binding; conditions: read-out: 3-MP concentration required to induce 50% inhibition of PDSP radioligand binding
T7 construct: NIMH Psychoactive Drug Screening Program (PDSP)
T7 sequence (P25100 whole entry): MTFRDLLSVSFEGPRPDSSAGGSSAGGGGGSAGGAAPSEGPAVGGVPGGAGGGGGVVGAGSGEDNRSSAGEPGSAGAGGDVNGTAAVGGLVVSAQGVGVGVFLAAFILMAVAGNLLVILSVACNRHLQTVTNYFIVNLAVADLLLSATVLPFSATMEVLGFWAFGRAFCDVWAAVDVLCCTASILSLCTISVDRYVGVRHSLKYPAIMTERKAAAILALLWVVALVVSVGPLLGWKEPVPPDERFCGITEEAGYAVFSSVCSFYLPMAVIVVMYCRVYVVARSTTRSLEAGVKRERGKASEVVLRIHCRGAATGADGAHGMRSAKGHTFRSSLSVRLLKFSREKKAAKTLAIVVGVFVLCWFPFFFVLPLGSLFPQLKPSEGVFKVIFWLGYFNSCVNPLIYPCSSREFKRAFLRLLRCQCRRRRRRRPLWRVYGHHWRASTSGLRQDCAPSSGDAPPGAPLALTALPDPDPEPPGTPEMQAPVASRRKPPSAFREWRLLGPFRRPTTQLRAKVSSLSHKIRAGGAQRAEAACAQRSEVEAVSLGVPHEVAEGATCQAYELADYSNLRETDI
Method: as §1

[7] = target: T8, Serotonin 5-HT1D receptor (Homo sapiens, UniProt P28221); experiment: PDSP radioligand binding; conditions: read-out: 3-MP concentration required to induce 50% inhibition of PDSP radioligand binding
T8 construct: NIMH Psychoactive Drug Screening Program (PDSP)
Method: as §1

[8] = target: T9, Serotonin 5-HT1A receptor (Homo sapiens, UniProt P08908); experiment: PDSP radioligand binding; conditions: read-out: 3-MP concentration required to induce 50% inhibition of PDSP radioligand binding
T9 construct: NIMH Psychoactive Drug Screening Program (PDSP)
Method: as §1

Histamine H2 receptor = Histamine H2 receptor (Homo sapiens, UniProt P25021); experiment: PDSP radioligand binding; conditions: read-out: 3-MP concentration required to induce 50% inhibition of PDSP radioligand binding
Method: as §1

[9] = target: T10, Adrenergic Alpha1A receptor (Homo sapiens, UniProt P35348); experiment: PDSP radioligand binding; conditions: read-out: 3-MP concentration required to induce 50% inhibition of PDSP radioligand binding
T10 construct: NIMH Psychoactive Drug Screening Program (PDSP)
Method: as §1

[10] = target: T11, Serotonin 5-HT7A receptor (Homo sapiens, UniProt P34969); experiment: PDSP radioligand binding; conditions: read-out: 3-MP concentration required to induce 50% inhibition of PDSP radioligand binding
T11 construct: NIMH Psychoactive Drug Screening Program (PDSP)
Method: as §1

NET transporter = NET transporter (Homo sapiens, UniProt P23975); experiment: PDSP radioligand binding; conditions: read-out: 3-MP concentration required to induce 50% inhibition of PDSP radioligand binding
Chain of NET transporter (P23975 whole entry): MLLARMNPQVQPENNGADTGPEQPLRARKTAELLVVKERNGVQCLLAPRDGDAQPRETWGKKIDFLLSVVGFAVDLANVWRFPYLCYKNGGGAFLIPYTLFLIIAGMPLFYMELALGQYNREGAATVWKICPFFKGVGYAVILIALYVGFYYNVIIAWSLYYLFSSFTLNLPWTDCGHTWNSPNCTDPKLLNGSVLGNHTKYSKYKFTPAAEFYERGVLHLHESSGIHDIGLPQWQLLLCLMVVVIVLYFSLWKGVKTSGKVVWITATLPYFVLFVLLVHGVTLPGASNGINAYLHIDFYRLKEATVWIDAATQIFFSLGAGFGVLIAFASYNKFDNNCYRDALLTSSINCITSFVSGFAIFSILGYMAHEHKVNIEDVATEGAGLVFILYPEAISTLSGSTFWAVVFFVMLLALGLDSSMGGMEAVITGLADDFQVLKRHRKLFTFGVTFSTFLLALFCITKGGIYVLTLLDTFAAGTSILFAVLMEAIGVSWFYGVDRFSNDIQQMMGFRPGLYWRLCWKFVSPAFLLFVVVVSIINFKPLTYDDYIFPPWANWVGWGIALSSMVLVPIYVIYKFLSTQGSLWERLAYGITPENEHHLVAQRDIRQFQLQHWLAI
Method: as §1

Dopamine D5 receptor = Dopamine D5 receptor (Homo sapiens, UniProt P21918); experiment: PDSP radioligand binding; conditions: read-out: 3-MP concentration required to induce 50% inhibition of PDSP radioligand binding
Method: as §1

[11] = target: Benzodiazepine BZP receptor; experiment: PDSP radioligand binding; conditions: read-out: 3-MP concentration required to induce 50% inhibition of PDSP radioligand binding
Method: as §1

Dopamine D2 receptor = target: T12, Dopamine D2 receptor (Homo sapiens, UniProt P14416); experiment: PDSP radioligand binding; conditions: read-out: 3-MP concentration required to induce 50% inhibition of PDSP radioligand binding
T12 construct: NIMH Psychoactive Drug Screening Program (PDSP)
Method: as §1

[12] = target: T13, Serotonin 5-HT1B receptor (Homo sapiens, UniProt P28222); experiment: PDSP radioligand binding; conditions: read-out: 3-MP concentration required to induce 50% inhibition of PDSP radioligand binding
T13 construct: NIMH Psychoactive Drug Screening Program (PDSP)
Method: as §1

Muscarinic M1 receptor = Muscarinic M1 receptor (Homo sapiens, UniProt P11229); experiment: PDSP radioligand binding; conditions: read-out: 3-MP concentration required to induce 50% inhibition of PDSP radioligand binding
Method: as §1

Dopamine D3 receptor = Dopamine D3 receptor (Homo sapiens, UniProt P35462); experiment: PDSP radioligand binding; conditions: read-out: 3-MP concentration required to induce 50% inhibition of PDSP radioligand binding
Chain of Dopamine D3 receptor (P35462 whole entry): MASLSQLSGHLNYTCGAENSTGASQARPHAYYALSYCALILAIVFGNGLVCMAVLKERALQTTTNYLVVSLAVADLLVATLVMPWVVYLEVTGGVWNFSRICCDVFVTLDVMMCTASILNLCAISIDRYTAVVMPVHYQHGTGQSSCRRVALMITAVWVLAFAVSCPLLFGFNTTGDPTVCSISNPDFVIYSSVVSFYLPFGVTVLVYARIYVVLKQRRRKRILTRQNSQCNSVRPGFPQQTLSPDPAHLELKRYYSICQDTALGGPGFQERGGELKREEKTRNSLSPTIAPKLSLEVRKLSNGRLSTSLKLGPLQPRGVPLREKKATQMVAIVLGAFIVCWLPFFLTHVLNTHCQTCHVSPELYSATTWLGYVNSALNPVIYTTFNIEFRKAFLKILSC
Method: as §1

Serotonin 5-HT3 receptor = target: T14, Serotonin 5-HT3 receptor (Homo sapiens, UniProt P46098); experiment: PDSP radioligand binding; conditions: read-out: 3-MP concentration required to induce 50% inhibition of PDSP radioligand binding
T14 construct: NIMH Psychoactive Drug Screening Program (PDSP)
T14 sequence (P46098 24-478): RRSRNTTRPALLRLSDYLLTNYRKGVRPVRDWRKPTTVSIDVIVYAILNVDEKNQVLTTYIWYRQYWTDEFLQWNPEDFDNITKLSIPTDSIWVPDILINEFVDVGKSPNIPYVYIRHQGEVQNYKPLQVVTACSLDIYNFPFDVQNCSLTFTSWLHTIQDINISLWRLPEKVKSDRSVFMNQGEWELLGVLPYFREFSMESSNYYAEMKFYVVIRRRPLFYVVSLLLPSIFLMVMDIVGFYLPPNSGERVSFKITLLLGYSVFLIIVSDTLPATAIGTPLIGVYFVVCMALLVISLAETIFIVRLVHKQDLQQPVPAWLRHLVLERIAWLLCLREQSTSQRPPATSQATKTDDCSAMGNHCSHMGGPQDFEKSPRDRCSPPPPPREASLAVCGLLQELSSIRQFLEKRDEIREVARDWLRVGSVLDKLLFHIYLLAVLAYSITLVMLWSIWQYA
Method: as §1

[13] = target: T15, Adrenergic Beta3 receptor (Homo sapiens, UniProt P13945); experiment: PDSP radioligand binding; conditions: read-out: 3-MP concentration required to induce 50% inhibition of PDSP radioligand binding
T15 construct: NIMH Psychoactive Drug Screening Program (PDSP)
Method: as §1

[14] = target: T16, Adrenergic Alpha2B receptor (Homo sapiens, UniProt P18089); experiment: PDSP radioligand binding; conditions: read-out: 3-MP concentration required to induce 50% inhibition of PDSP radioligand binding
T16 construct: NIMH Psychoactive Drug Screening Program (PDSP)
T16 sequence (P18089 whole entry): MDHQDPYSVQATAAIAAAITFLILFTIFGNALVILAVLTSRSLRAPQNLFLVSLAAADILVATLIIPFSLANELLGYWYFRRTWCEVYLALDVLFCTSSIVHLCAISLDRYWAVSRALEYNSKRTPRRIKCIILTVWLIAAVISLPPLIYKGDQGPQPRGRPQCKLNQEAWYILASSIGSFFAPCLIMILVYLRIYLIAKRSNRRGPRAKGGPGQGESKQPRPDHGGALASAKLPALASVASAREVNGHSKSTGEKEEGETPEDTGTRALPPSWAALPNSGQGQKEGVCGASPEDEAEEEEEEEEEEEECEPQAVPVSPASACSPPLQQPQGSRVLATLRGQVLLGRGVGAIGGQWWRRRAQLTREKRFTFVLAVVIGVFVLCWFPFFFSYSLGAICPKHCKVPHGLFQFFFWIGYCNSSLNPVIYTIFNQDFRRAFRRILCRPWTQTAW
Method: as §1

[15] = target: T17, Serotonin 5-HT2B receptor (Homo sapiens, UniProt P41595); experiment: PDSP radioligand binding; conditions: read-out: 3-MP concentration required to induce 50% inhibition of PDSP radioligand binding
T17 construct: NIMH Psychoactive Drug Screening Program (PDSP)
Method: as §1

Muscarinic M2 receptor = Muscarinic M2 receptor (Homo sapiens, UniProt P08172); experiment: PDSP radioligand binding; conditions: read-out: 3-MP concentration required to induce 50% inhibition of PDSP radioligand binding
Method: as §1

[16] = system: plasma TNF-α, IL-1β, IL-6, IL-10 in MCAo-challenged rats; experiment: MCAo ischemic stroke: plasma cytokines at 48 h; format: in vivo; conditions: rat MCAo, 3-MP I.P., plasma at 48 h

T1 sequence (P28335 33-458): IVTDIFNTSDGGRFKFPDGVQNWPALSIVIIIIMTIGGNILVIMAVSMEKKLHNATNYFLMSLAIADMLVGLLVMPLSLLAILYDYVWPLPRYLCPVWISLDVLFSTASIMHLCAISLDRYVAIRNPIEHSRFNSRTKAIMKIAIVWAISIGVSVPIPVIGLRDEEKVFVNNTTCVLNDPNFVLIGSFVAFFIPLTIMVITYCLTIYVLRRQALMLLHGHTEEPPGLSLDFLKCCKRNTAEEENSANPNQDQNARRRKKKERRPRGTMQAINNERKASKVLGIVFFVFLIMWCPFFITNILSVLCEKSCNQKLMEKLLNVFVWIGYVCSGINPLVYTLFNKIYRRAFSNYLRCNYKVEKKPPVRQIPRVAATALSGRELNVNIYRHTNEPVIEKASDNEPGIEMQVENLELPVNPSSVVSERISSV

SMILES: Nc1cccc2c1C(=S)N(C1CCC(=O)NC1=O)C2=O (centres unmarked) [3-MP, 3-Monothiopomalidomide]
- IC50 [1]: > 10 µM
- IC50 [2]: > 10 µM
- IC50 (μ-opioid receptor): > 10 µM
- IC50 (δ-opioid receptor): > 10 µM
- IC50 [3]: > 10 µM
- IC50 [4]: > 10 µM
- IC50 (Histamine H1 receptor): > 10 µM
- IC50 (Muscarinic M3 receptor): > 10 µM
- IC50 (SERT transporter): > 10 µM
- IC50 (GABAA receptor): > 10 µM
- IC50 (Dopamine D1 receptor): > 10 µM
- IC50 (Muscarinic M5 receptor): > 10 µM
- IC50 (DAT transporter): > 10 µM
- IC50 (Muscarinic M4 receptor): > 10 µM
- IC50 [5]: > 10 µM
- IC50 (Histamine H4 receptor): > 10 µM
- IC50 [6]: > 10 µM
- IC50 [7]: > 10 µM
- IC50 [8]: > 10 µM
- IC50 (Histamine H2 receptor): > 10 µM
- IC50 [9]: > 10 µM
- IC50 [10]: > 10 µM
- IC50 (NET transporter): > 10 µM
- IC50 (Dopamine D5 receptor): > 10 µM
- IC50 [11]: > 10 µM
- IC50 (Dopamine D2 receptor): > 10 µM
- IC50 [12]: > 10 µM
- IC50 (Muscarinic M1 receptor): > 10 µM
- IC50 (Dopamine D3 receptor): > 10 µM
- IC50 (Serotonin 5-HT3 receptor): > 10 µM
- IC50 [13]: > 10 µM
- IC50 [14]: > 10 µM
- IC50 [15]: > 10 µM
- IC50 (Muscarinic M2 receptor): > 10 µM
- MCAo-induced elevation in plasma IL-1β [16]: significantly mitigated
- MCAo-induced elevation in plasma IL-6 [16]: significantly mitigated
- MCAo-induced elevation in plasma TNF-α [16]: significantly mitigated
- plasma anti-inflammatory IL-10 levels [16]: rise
